The values that follow come from patent publication US5770380A (priority 1996, dated 1998).

This test addresses Horse Cytochrome c (Equus caballus, UniProt P00004). The test is described as follows: Micro calorimetry titration of Cytochrome c. The class given is binding. The following applies: micro calorimetry titration (FIG. 9); read-out: association constant (converted). From the text: FIG. 9 illustrates a micro calorimetry titration of Cytochrome c with a preferred embodiment of the present invention.
Horse Cytochrome c is an electron-transferring protein with a heme prosthetic group. The size of this protein is 12,384 Dalton and the surface is highly positively charged with lysine and arginine residues. For the X-ray crystal structure of Cytochrome c, see: Bushnell, G. W.; Louie, G. D.; Brayer, G. D. J. Mol. Biol. 1990, 214, 585. NMR titration of Cytochrome c with a preferred embodiment of the invention, designated 1 below, was performed under the condition described in FIG. 8 and two of the hyperfine region protons from heme in Cytochrome c, heme 8-CH3 and heme 3-CH3, were followed. […] The direction and the size of shifts are about the same as those of the titration between Cytochrome c and Cytochrome c peroxydase and peak broadening was also observed in the peroxydase titration. For NMR titration of cytochrome c and cytochrome-c peroxydase, see: Satterlee, J. D.; Moench, S. J.; Erman, J. E. Biochemica et Boiphysica Acta 1987, 912, 87-97. FIG. 8 is consistent with 1:1 binding. [drawing 1] Micro calorimetry titration of Cytochrome c with 1 was also performed (see FIG. 9). The association constant was calculated as 136000M^-1 therefore ΔG=-7.0 kcal/mol. As the enthalpy of the binding event is simulated as -5.6 kcal/mol, the entropy portion should be -1.4 kcal/mol. […]

Sequence of Horse Cytochrome c (P00004 whole entry): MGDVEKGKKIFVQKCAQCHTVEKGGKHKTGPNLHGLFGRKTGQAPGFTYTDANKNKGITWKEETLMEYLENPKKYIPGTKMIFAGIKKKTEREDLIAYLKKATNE

Take `CCCCOc1c2cc(C(=O)Nc3cc4cc(c3)C(=O)NCC(=O)N[C@@H](CC(=O)O)C(=O)NCC(=O)N[C@@H](CC(=O)O)C(=O)NC4)cc1Cc1cc(C(=O)Nc3cc4cc(c3)C(=O)NCC(=O)N[C@@H](CC(=O)O)C(=O)NCC(=O)N[C@@H](CC(=O)O)C(=O)NC4)cc(c1OCCCC)Cc1cc(C(=O)Nc3cc4cc(c3)C(=O)NCC(=O)N[C@@H](CC(=O)O)C(=O)NCC(=O)N[C@@H](CC(=O)O)C(=O)NC4)cc(c1OCCCC)Cc1cc(C(=O)Nc3cc4cc(c3)C(=O)NCC(=O)N[C@@H](CC(=O)O)C(=O)NCC(=O)N[C@@H](CC(=O)O)C(=O)NC4)cc(c1OCCCC)C2` [compound 1, Calix[4]arenetetracyclicpeptide1]: the Kd is 7.35 µM.
